Patent publication US9907847B2, “Pyrrolopyrimidines as therapeutic agents for the treatment of diseases” (GlaxoSmithKline LLC, priority 2012, dated 2018)

Assays:
IFN-α = assay: Induction of interferon-α using fresh human whole blood (WB); format: cell-based; settings: three donors, overnight incubation, response as % of 2 μM resiquimod control, read-out: mean pEC50 for IFN-α (converted)
Protocol: (§1) Assay for the Induction of Interferon-[…] and TNF-[…] Using Fresh Human Whole Blood (WB)
(§2) Compounds were prepared at 100× required concentration in DMSO in flat-bottom microtitre plates at a volume of 1.5 μL. Columns 1-10 contained a 1 in 4 serial dilution of the test compound. Included on each plate was a serial dilution of the TLR7/8 agonist resiquimod as a standard and Column 11 contained 1.5 μl of 200 μM resiquimod (giving a 2 μM final concentration, used to define the approximate maximal response to resiquimod). Each compound was assayed in duplicate for each donor.
(§3) Blood samples from three human donors were collected into sodium heparin (10 U/ml). 150 μl of whole Blood was dispensed into Col 1 to 11 of assay plates containing 1.5 μl of test compound or standard in DMSO. Plates were placed in an incubator overnight (37° C., 95% air, 5% CO2). Following the overnight incubation, plates were removed from the incubator & mixed on an orbital shaker for approximately 1 minute. 100 μl of 0.9% saline was added to each well and the plates mixed again on an orbital shaker. Plates were then centrifuged (2500 rpm, 10 mins), after which a sample of plasma was removed using a Biomek FX and assayed for both IFN-α and TNF-α using the MSD (Mesoscale Discovery) electrochemiluminescence assay platform. The IFN-α assay was carried out similarly to that described above. The TNF-α assay was carried out as per kit instructions (Cat No K111BHB).
(§4) Cytokine released was expressed as a percentage of the 2 μM resiquimod control (column 11). This percentage was plotted against compound concentration and the pEC50 for the response determined by non-linear least squares curve fitting. For the IFN-α responses, generally a 4 parameter logistic model was selected. For the TNF-α responses where a clear maximum response was obtained (i.e. a well defined plateau in the response was observed) then a 4 parameter model was generally used. If the upper asymptote of the curve wasn't well defined then the curve fitting was generally constrained to a maximal response of 100% (i.e. to the response to 2 μM resiquimod) or to the response of the highest concentration tested if this was greater than the resiquimod response. Some curves were bell shaped for one or both cytokines and the cytokine data on the down slope of the bell shaped response (i.e. concentrations above those giving the maximal response) were generally excluded from the fit, usually with the exception of the concentration immediately above the peak response. Curve fitting thus concentrated on the up slope of the dose response curve.

TNF-α = assay: Induction of TNF-α using fresh human whole blood (WB); format: cell-based; settings: three donors, overnight incubation, response as % of 2 μM resiquimod control, read-out: mean pEC50 for TNF-α (converted)
Protocol: as §1, §2, §3, §4

| EC50 (IFN-α) [µM] | EC50 (TNF-α) [µM] | SMILES |
| --- | --- | --- |
| ≤ 5.01 | ≥ 5.01 | COCCc1nc(N)c2[nH]cc(CCCCCCN3CCCCCC3)c2n1 [Example 30, 7-(6-(Azepan-1-yl)hexyl)-2-(2-methoxyethyl)-5H-pyrrolo[3,2-d]pyrimidin-4-amine] |
| ≤ 5.01 | ≥ 5.01 | CCCCc1nc(N)c2[nH]cc(CCCCCCN3CCC(F)CC3)c2n1 [Example 31, 2-Butyl-7-(6-(4-fluoropiperidin-1-yl)hexyl)-5H-pyrrolo[3,2-d]pyrimidin-4-amine] |
| ≤ 5.01 | ≥ 5.01 | CCCCc1nc(N)c2[nH]cc(CCCCCCN3CC[C@@H](F)C3)c2n1 [Example 32, (R)-2-Butyl-7-(6-(3-fluoropyrrolidin-1-yl)hexyl)-5H-pyrrolo[3,2-d]pyrimidin-4-amine] |
| ≤ 5.01 | ≥ 5.01 | CCCCc1nc(N)c2[nH]cc(CCCCCCN3CC[C@H](F)C3)c2n1 [Example 33, (S)-2-Butyl-7-(6-(3-fluoropyrrolidin-1-yl)hexyl)-5H-pyrrolo[3,2-d]pyrimidin-4-amine] |
| ≤ 5.01 | ≥ 5.01 | CCCCc1nc(N)c2[nH]cc(CCCCCN3CCC[C@@H]3C)c2n1 [Example 34, (S)-2-Butyl-7-(5-(2-methylpyrrolidin-1-yl)pentyl)-5H-pyrrolo[3,2-d]pyrimidin-4-amine] |
| ≤ 5.01 | ≥ 5.01 | CCCCc1nc(N)c2[nH]cc(CCCCCN3CCC[C@H]3C)c2n1 [Example 35, (R)-2-Butyl-7-(5-(2-methylpyrrolidin-1-yl)pentyl)-5H-pyrrolo[3,2-d]pyrimidin-4-amine] |
| ≤ 5.01 | ≥ 5.01 | CCCCc1nc(N)c2[nH]cc(CCCCCN3CC(C)C3)c2n1 [Example 36, 2-Butyl-7-(5-(3-methylazetidin-1-yl)pentyl)-5H-pyrrolo[3,2-d]pyrimidin-4-amine] |
| ≤ 5.01 | ≥ 5.01 | CCCCc1nc(N)c2[nH]cc(CCCCCN3CC(F)C3)c2n1 [Example 37, 2-Butyl-7-(5-(3-fluoroazetidin-1-yl)pentyl)-5H-pyrrolo[3,2-d]pyrimidin-4-amine] |
| ≤ 5.01 | ≥ 5.01 | CCCCc1nc(N)c2[nH]c(C)c(CCCCCN3CCC(F)CC3)c2n1 [Example 39, 2-Butyl-7-(5-(4-fluoropiperidin-1-yl)pentyl)-6-methyl-5H-pyrrolo[3,2-d]pyrimidin-4-amine] |
| ≤ 5.01 | ≥ 5.01 | CCCCc1nc(N)c2[nH]c(C)c(CCCCCN3CC[C@H](F)C3)c2n1 [Example 40, (S)-2-Butyl-7-(5-(3-fluoropyrrolidin-1-yl)pentyl)-6-methyl-5H-pyrrolo[3,2-d]pyrimidin-4-amine] |
| ≤ 5.01 | ≥ 5.01 | CCCCc1nc(N)c2[nH]c(C)c(CCCCCN3CC[C@@H](F)C3)c2n1 [Example 41, (R)-2-Butyl-7-(5-(3-fluoropyrrolidin-1-yl)pentyl)-6-methyl-5H-pyrrolo[3,2-d]pyrimidin-4-amine] |
| ≤ 5.01 | ≥ 5.01 | CCCCc1nc(N)c2[nH]c(C)c(CCCCCN3CC(F)C3)c2n1 [Example 42, 2-Butyl-7-(5-(3-fluoroazetidin-1-yl)pentyl)-6-methyl-5H-pyrrolo[3,2-d]pyrimidin-4-amine] |
| ≤ 5.01 | ≥ 5.01 | COCCc1nc(N)c2[nH]cc(CCCCCN3CCCC3)c2n1 [Example 43, 2-(2-Methoxyethyl)-7-(5-(pyrrolidin-1-yl)pentyl)-5H-pyrrolo[3,2-d]pyrimidin-4-amine] |
